Source: patent US20160270405A1, “Synergistic Compositions Comprising a Bacillus Subtilis Strain and a Pesticide” (BASF CORPORATION, priority 2013, published 2016)

Columns and labels:
wheat = assay: Improvement of plant growth in wheat: seed treatment, two week growth in seed germination pouches; assay type: in vivo; settings: pyraclostrobin 1 g a.i./100 kg seed and/or FB17 1 × 10^6 CFU per seed, two weeks growth
Protocol: (§1) Pyraclostrobin was applied to corn or wheat seeds as the commercial, liquid seed treatment formulation Stamina® (200 g per litre a.i., BASF Corporation, Research Triangle Park, North Carlolina), whereas Bacillus subtilis FB17 was applied to corn seeds as a SC formulation (about 2×10^10 CFU ml^−1).
Corn or wheat seeds were treated at the BASF Seed Solutions Technology Center (SSTC) in Ames, Iowa. Pyraclostrobin and Bacillus subtilis UD1022 were applied to maize seeds as water-based slurries by using methods consistent with commercial seed treatment applications in a laboratory-scale batch treater. […]
Corn or wheat plants were allowed to grow for two weeks. At the conclusion of the two week growth period, plant height and shoot and root dry weights were determined. Plant height was measured in centimeters. […] Shoot and root dry weights were measured in mg using an analytical balance.
Treatments were arranged in a completely randomized design with ten replications per treatment. Shoot height, shoot dry weight and root dry weight data were expressed as difference (%) relative to the not-treated control to facilitate application of Colby's formula (Colby, 1967) to calculate expected difference (EColby). […]

corn = assay: Improvement of plant growth in corn: seed treatment, two week growth in seed germination pouches; assay type: in vivo; settings: pyraclostrobin 1 g a.i./100 kg seed and/or FB17 1 × 10^6 CFU per seed, two weeks growth
Protocol: as §1
Corn or wheat seeds were treated at the BASF Seed Solutions Technology Center (SSTC) in Ames, Iowa. Pyraclostrobin and Bacillus subtilis UD1022 were applied to maize seeds as water-based slurries by using methods consistent with commercial seed treatment applications in a laboratory-scale batch treater. Briefly, 500 g of corn seeds were added to the drum of a laboratory-scale batch treater and 6 ml of prepared slurry (with appropriate amount of pyraclostrobin, Bacillus subtilis FB17, or combination thereof) was applied to the seed as the drum rotated. For 500 g of wheat seeds, 8 ml of slurry was used. Seed was rotated in the drum for 30 seconds following application of the slurry to assure uniform and complete coverage to the seed surface.
Treated seeds were placed in seed germination pouches (Mega International, St. Paul, Minn.) and 20 ml of fertilizer solution that provided 50 ppm nitrogen, 7.5 ppm phosphorus, and 37.5 ppm potassium (derived from calcium nitrate, potassium nitrate, phosphoric acid and adjusted to pH 6.5) was added to each pouch. Seed germination pouches were placed in 25° C. growth chambers with a 16 h photoperiod. Five ml of fertilizer solution was added to seed germination pouches at two day intervals to replenish water lost to evapotranspiration.
Corn or wheat plants were allowed to grow for two weeks. At the conclusion of the two week growth period, plant height and shoot and root dry weights were determined. Plant height was measured in centimeters. Shoot and root tissues were separated and dried in an oven at 68° C. for three days. Shoot and root dry weights were measured in mg using an analytical balance.
Treatments were arranged in a completely randomized design with ten replications per treatment. Shoot height, shoot dry weight and root dry weight data were expressed as difference (%) relative to the not-treated control to facilitate application of Colby's formula (Colby, 1967) to calculate expected difference (EColby).
EColby=PA+PB−PA*PB/100 • EColby expected difference, expressed in % difference from the not-treated control, when using the mixture of the active compounds A and B at the concentrations a and b • PA difference, expressed as % difference from the not-treated control, when using the active compound A at the concentration a • PB difference, expressed in % difference from the not-treated control, when using the active compound B at the concentration b.

COC(=O)N(OC)c1ccccc1COc1ccn(-c2ccc(Cl)cc2)n1 [Pyraclostrobin, pyraclostrobin]
Difference (root dry weight) relative to not-treated control (wheat): 17.4% | Root dry weight (wheat; dried at 68° C. for three days): 10.1 mg | Difference (shoot dry weight) relative to not-treated control (corn): 1.1% | Difference (shoot height) relative to not-treated control (corn): 3.5% | Shoot dry weight (corn; dried at 68° C. for three days): 85.0 mg | Shoot height (corn; mean of 10 measurements): 29.7 cm
